According to ChEMBL document CHEMBL3992552, “Mechanisms of action and structure-activity relationships of cytotoxic flavokawain derivatives” (Bioorg Med Chem, 2017):
The source made the active and inactive calls. The rule behind the calls is not given here.

How the values were obtained:
HaCaT [1] = experiment: Cytotoxicity against human HaCaT cells assessed as cell survival at 50 uM after 48 hrs by Hoechst 33342 staining based assay relative to control; format: functional; details: read-out: Survival
HaCaT [2] = experiment: Cell cycle arrest in human HaCaT cells harboring […] p53 assessed as mitotic index at 10 uM measured after 48 hrs by Hoechst staining based fluorescence assay (reference value: 2.6); format: functional
MDA-MB-231 [3] = experiment: Cytotoxicity against human MDA-MB-231 cells assessed as cell viability after 48 hrs by Hoechst 33342 staining based assay; format: functional; details: MDA-MB-231, 48 h
MDA-MB-231 [4] = experiment: Induction of apoptosis in human MDA-MB-231 cells harboring p53 mutant assessed as increase in late apoptosis at 2 times IC50 after 24 hrs by YoPro/propidium iodide/Hoechst staining based assay; format: functional, cell-based
HaCaT [5] = experiment: Cell cycle arrest in human HaCaT cells harboring […] p53 assessed as mitotic index at 25 uM measured after 48 hrs by Hoechst staining based fluorescence assay (reference value: 2.6); format: functional
MCF7 [6] = experiment: Induction of apoptosis in human MCF7 cells harboring wild-type p53 assessed as increase in early apoptosis at 2 times IC50 after 24 hrs by YoPro/propidium iodide/Hoechst staining based assay; format: functional, cell-based
PC-3 [7] = experiment: Induction of apoptosis in human PC3 cells harboring p53 mutant assessed as increase in early apoptosis at 2 times IC50 after 48 hrs by YoPro/propidium iodide/Hoechst staining based assay; format: functional, cell-based
HaCaT [8] = experiment: Cytotoxicity against human HaCaT cells assessed as cell viability after 48 hrs by Hoechst 33342 staining based assay; format: functional
NCI-H727 = experiment: Cell cycle arrest in human NCI-H727 cells harboring p53 mutant assessed as accumulation at S phase at 25 uM measured after 48 hrs by Hoechst/BrdU staining based fluorescence assay (reference value: 40.3%); format: functional
Caco-2 [9] = experiment: Cytotoxicity against human Caco2 cells assessed as cell viability after 48 hrs by Hoechst 33342 staining based assay; format: functional; details: Caco-2, 48 h
Caco-2 [10] = experiment: Cell cycle arrest in human Caco2 cells assessed as mitotic index at 25 uM measured after 48 hrs by Hoechst staining based fluorescence assay (reference value: 3.6); format: functional
MDA-MB-231 [11] = experiment: Induction of apoptosis in human MDA-MB-231 cells harboring p53 mutant assessed as upregulation of cyclinB1 after 18 hrs by Hoechst staining based assay; format: functional, cell-based
MCF7 [12] = experiment: Induction of apoptosis in human MCF7 cells harboring wild-type p53 assessed as increase in late apoptosis at 2 times IC50 after 24 hrs by YoPro/propidium iodide/Hoechst staining based assay; format: functional, cell-based
[13] = Selectivity index, ratio of IC50 for human fibroblasts to IC50 for human PC3 cells
PC-3 [14] = experiment: Cell cycle arrest in human PC3 cells harboring p53 mutant assessed as accumulation at S phase at 25 uM measured after 48 hrs by Hoechst/BrdU staining based fluorescence assay (reference value: 40.8%); format: functional
Caco-2 [15] = experiment: Cell cycle arrest in human Caco2 cells assessed as accumulation at S phase at 10 uM measured after 48 hrs by Hoechst/BrdU staining based fluorescence assay (reference value: […]); format: functional
PC-3 [16] = experiment: Cytotoxicity against human PC3 cells assessed as cell viability after 48 hrs by Hoechst 33342 staining based assay; format: functional; details: PC-3, 48 h
Huh-7 [17] = experiment: Cell cycle arrest in human HuH7 cells assessed as mitotic index at 10 uM measured after 48 hrs by Hoechst staining based fluorescence assay (reference value: 2.2); format: functional
PC-3 [18] = experiment: Cytotoxicity against human PC3 cells assessed as cell survival at 50 uM after 48 hrs by Hoechst 33342 staining based assay relative to control; format: functional; details: PC-3, 48 h, read-out: Survival
HCT-116 [19] = experiment: Cell cycle arrest in human HCT116 cells harboring wild-type p53 assessed as mitotic index at 10 uM measured after 48 hrs by Hoechst staining based fluorescence assay (reference value: 2.3); format: functional
HCT-116 [20] = experiment: Cell cycle arrest in human HCT116 cells harboring wild-type p53 assessed as accumulation at S phase at 10 uM measured after 48 hrs by Hoechst/BrdU staining based fluorescence assay (reference value: 68.4%); format: functional
MDA-MB-231 [21] = experiment: Cytotoxicity against human MDA-MB-231 cells assessed as cell survival at 50 uM after 48 hrs by Hoechst 33342 staining based assay relative to control; format: functional; details: MDA-MB-231, 48 h, read-out: Survival
Huh-7 [22] = experiment: Cell cycle arrest in human HuH7 cells assessed as accumulation at S phase at 10 uM measured after 48 hrs by Hoechst/BrdU staining based fluorescence assay (reference value: 44%); format: functional
HaCaT [23] = experiment: Cell cycle arrest in human HaCaT cells harboring […] p53 assessed as accumulation at S phase at 25 uM measured after 48 hrs by Hoechst/BrdU staining based fluorescence assay (reference value: 52.3%); format: functional
[24] = Selectivity index, ratio of IC50 for human fibroblasts to IC50 for human HCT116 cells
HCT-116 [25] = experiment: Cell cycle arrest in human HCT116 cells harboring wild-type p53 assessed as accumulation at S phase at 25 uM measured after 48 hrs by Hoechst/BrdU staining based fluorescence assay (reference value: 68.4%); format: functional
Caco-2 [26] = experiment: Cell cycle arrest in human Caco2 cells assessed as accumulation at S phase at 25 uM measured after 48 hrs by Hoechst/BrdU staining based fluorescence assay (reference value: […]); format: functional
HaCaT [27] = experiment: Cell cycle arrest in human HaCaT cells assessed as accumulation at M phase by Hoechst staining based fluorescence assay; format: functional
Huh-7 [28] = experiment: Cytotoxicity against human HuH7 cells assessed as cell survival at 50 uM after 48 hrs by Hoechst 33342 staining based assay relative to control; format: functional; details: Huh-7, 48 h, read-out: Survival
[29] = Cytotoxicity against human fibroblasts assessed as cell survival at 50 uM after 48 hrs by Hoechst 33342 staining based assay relative to control; design: species or system Fibroblast; details: read-out: Survival
HCT-116 [30] = experiment: Cytotoxicity against human HCT116 cells assessed as cell survival at 50 uM after 48 hrs by Hoechst 33342 staining based assay relative to control; format: functional; details: HCT-116, 48 h, read-out: Survival
PC-3 [31] = experiment: Cell cycle arrest in human PC3 cells harboring p53 mutant assessed as mitotic index at 10 uM measured after 48 hrs by Hoechst staining based fluorescence assay (reference value: 2.5); format: functional
HCT-116 [32] = experiment: Induction of apoptosis in human HCT116 cells harboring wild-type p53 assessed as increase in cleaved caspase3 at 2 times IC50 after 48 hrs by Hoechst staining based assay; format: functional, cell-based
HCT-116 [33] = experiment: Cell cycle arrest in human HCT116 cells assessed as accumulation at G1/S phase by Hoechst staining based fluorescence assay; format: functional
Caco-2 [34] = experiment: Cell cycle arrest in human Caco2 cells assessed as mitotic index at 10 uM measured after 48 hrs by Hoechst staining based fluorescence assay (reference value: 3.6); format: functional
MCF7 [35] = experiment: Induction of apoptosis in human MCF7 cells harboring wild-type p53 assessed as upregulation of p21 measured after 48 hrs by Hoechst staining based fluorescence assay; format: functional, cell-based
MCF7 [36] = experiment: Cytotoxicity against human MCF7 assessed as cell viability after 48 hrs by Hoechst 33342 staining based assay; format: functional; details: MCF7, 48 h
Huh-7 [37] = experiment: Cytotoxicity against human HuH7 cells assessed as cell viability after 48 hrs by Hoechst 33342 staining based assay; format: functional; details: Huh-7, 48 h

Structure (SMILES): COc1cc(OC)c(C(=O)/C=C/c2ccccc2SC)c(OC)c1
- viability at 50 µM (HaCaT [1]): 6%
- Activity_index (HaCaT [2]): 18.9
- IC50 (MDA-MB-231 [3]): 9.9 µM
- Activity (MDA-MB-231 [4]): Active
- Activity_index (HaCaT [5]): 0.1
- Activity (MCF7 [6]): Active
- Activity (PC-3 [7]): Active
- IC50 (HaCaT [8]): 7.7 µM
- Activity (NCI-H727): 3%
- IC50 (Caco-2 [9]): 8.8 µM
- Activity_index (Caco-2 [10]): 4.2
- Activity (MDA-MB-231 [11]): Active
- Activity (MCF7 [12]): Active
- Ratio IC50 [13]: 4.2
- Activity (PC-3 [14]): 0%
- Activity (Caco-2 [15]): 36%
- IC50 (PC-3 [16]): 7.6 µM
- Activity_index (Huh-7 [17]): 6.5
- viability at 50 µM (PC-3 [18]): 30%
- Activity_index (HCT-116 [19]): 0.6
- Activity (HCT-116 [20]): 25%
- viability at 50 µM (MDA-MB-231 [21]): 36%
- Activity (Huh-7 [22]): 37%
- Activity (HaCaT [23]): 0%
- Ratio IC50 [24]: 4.7
- Activity (HCT-116 [25]): 0.5%
- Activity (Caco-2 [26]): 2.2%
- Activity (HaCaT [27]): Active
- viability at 50 µM (Huh-7 [28]): 4%
- viability at 48 h, 50 µM [29]: 74%
- viability at 50 µM (HCT-116 [30]): 0%
- Activity_index (PC-3 [31]): 12.1
- Activity (HCT-116 [32]): Active
- Activity (HCT-116 [33]): Active
- Activity_index (Caco-2 [34]): 29.3
- Activity (MCF7 [35]): Active
- IC50 (MCF7 [36]): 9.3 µM
- IC50 (Huh-7 [37]): 14.1 µM
